Some results are limits rather than exact numbers.

Data on 61 compounds can be found in patent US7507727B2, “Substituted quinobenzoxazine analogs and methods of using thereof” (Cylene Pharmaceuticals, Inc., priority 2003, dated 2009).

For one experiment, the target named is c-Myc template DNA (c-myc quadruplex). Kind of experiment: Quadruplex binding / stop assay (Taq polymerase arrest, capillary electrophoresis). The conditions noted are these: read-out: S DATA; Table 1D, stop assay data.
Consider `CN(C)CCCCNC(=O)c1cn2c3c(c(NCCN4CCOCC4)c(F)cc3c1=O)Oc1ccccc1-2` [compound 1610], for which the IC50 is > 15 µM.

On to `O=C(c1cn2c3c(c(NCCN4CCCC4)c(F)cc3c1=O)Oc1ccccc1-2)N1CCC(N2CCCC2)CC1` [compound 1601], for which the IC50 was > 15 µM.

Regarding `CN(C)CCCCNc1ccc2c(=O)c(C(=O)NCCC3CCCN3C)cn3c2c1Oc1cc2ccccc2cc1-3` (stereo not shown) [compound 1541], the IC50 amounted to 1.75 µM.

For the compound `CC(C)N1CCN(c2c(F)cc3c(=O)c(C(=O)NCCN4CCCC4)cn4c3c2Oc2ccc(Cl)cc2-4)CC1` [compound 1798], the IC50 is 6.6 µM.

As to `NC1CCN(C(=O)c2cn3c4c(c(N5CC6CCCNC6C5)c(F)cc4c2=O)Oc2cc4ccccc4cc2-3)C1` (stereo not shown) [compound 1638], the IC50 was found to be 1.75 µM.

Regarding `CC(C)N1CCN(c2c(F)cc3c(=O)c(C(=O)NCCN4CCOCC4)cn4c3c2Oc2cc(Cl)ccc2-4)CC1` [compound 1805], the IC50 was > 15 µM.

With `CN1CCN(CCCNc2c(F)cc3c(=O)c(C(=O)N4CCC(NC(=O)OC(C)(C)C)C4)cn4c3c2Oc2ccccc2-4)CC1` (stereo not shown) [compound 1574], the IC50 is > 15 µM.

As for `COc1cccc(CCNC(=O)c2cn3c4c(c(N5CCC(N)C5)c(F)cc4c2=O)Oc2cc4ccccc4cc2-3)c1` (stereo not shown) [compound 1698], the IC50 was > 15 µM.

For `CN1CCCC1CCNC(=O)c1cn2c3c(c(SCCc4cnccn4)c(F)cc3c1=O)Oc1ccccc1-2` (stereo not shown) [compound 1779], the IC50 is > 15 µM.

For the compound `CCN(CC)CCCC(C)NC(=O)c1cn2c3c(c(N4CCC(c5cnccn5)C4)ccc3c1=O)Oc1ccccc1-2` (stereo not shown) [compound 1721], the IC50 was 3 µM.

Consider `O=C(NCCN1CCOCC1)c1cn2c3c(c(SCCc4cnccn4)c(F)cc3c1=O)Oc1cc(Cl)ccc1-2` [compound 1788], for which the IC50 was > 15 µM.

With `CC1CCCN(CCCNc2c(F)cc3c(=O)c(C(=O)NCCC4CCCN4C)cn4c3c2Oc2cc3ccccc3cc2-4)C1` (stereo not shown) [compound 1685], the IC50 amounted to 1.75 µM.

Consider `CN1CCCC1CCNC(=O)c1cn2c3c(c(NCC4CCNCC4)c(F)cc3c1=O)Oc1cc3ccccc3cc1-2` (stereo not shown) [compound 1481], for which the IC50 was found to be 1.75 µM.

`O=C(NCCN1CCCC1)c1cn2c3c(c(NCC4CCCO4)c(F)cc3c1=O)Oc1ccc(Cl)cc1-2` (stereo not shown) [compound 1799]: the IC50 is > 15 µM.

For `CN1CCCC1CCNC(=O)c1cn2c3c(c(NCCCN)c(F)cc3c1=O)Oc1cc(Cl)ccc1-2` (stereo not shown) [compound 1809], the IC50 was > 15 µM.

`CN(C)CC(C)(C)CNC(=O)c1cn2c3c(c(NCCN4CCCC4)c(F)cc3c1=O)Oc1ccccc1-2` [compound 1600]: the IC50 is > 15 µM.

Consider `CN1CCN(CCCNc2c(F)cc3c(=O)c(C(=O)NCCCN4CCOCC4)cn4c3c2Oc2ccccc2-4)CC1` [compound 1572], for which the IC50 was > 15 µM.

Take `CN1CCCC1CCNC(=O)c1cn2c3c(c(N4CCNC(c5cccnc5)C4)c(F)cc3c1=O)Oc1cc3ccccc3cc1-2` (stereo not shown) [compound 1513]: the IC50 was found to be 1.75 µM.

Turning to `CC(CNc1c(F)cc2c(=O)c(C(=O)NCCC3CCCN3C)cn3c2c1Oc1cc2ccccc2cc1-3)c1ccccc1` (stereo not shown) [compound 1662], the IC50 came out at 1.75 µM.

On to `CN1CCCC1CCNC(=O)c1cn2c3c(c(NC4CCCNC4)c(F)cc3c1=O)Oc1cc3ccccc3cc1-2` (stereo not shown) [compound 1490], for which the IC50 was 0.75 µM.

`O=C(NCCN1CCCC1)c1cn2c3c(c(N4CCN(Cc5ccsc5)CC4)c(F)cc3c1=O)Oc1cc(Cl)ccc1-2` [compound 1831]: the IC50 is 9.8 µM.

For `CN1CCCC1CCNC(=O)c1cn2c3c(c(NCc4ccco4)c(F)cc3c1=O)Oc1cc3ccccc3cc1-2` (stereo not shown) [compound 1755], the IC50 was 4.2 µM.

On to `CC(C)N1CCN(c2c(F)cc3c(=O)c(C(=O)NCC(C)(C)CN(C)C)cn4c3c2Oc2ccccc2-4)CC1` [compound 1568], for which the IC50 was > 15 µM.

In the case of `C[C@H](O)CNC(=O)c1cn2c3c(c(N4CCC(N)C4)c(F)cc3c1=O)Oc1cc3ccccc3cc1-2` (stereo partly shown) [compound 1709], the IC50 was > 15 µM.

As to `NC1CCN(c2c(F)cc3c(=O)c(C(=O)NCCc4cccs4)cn4c3c2Oc2cc3ccccc3cc2-4)C1` (stereo not shown) [compound 1701], the IC50 is > 15 µM.

Consider `CC1(C)CC(NC(=O)c2cn3c4c(c(NCCN5CCOCC5)c(F)cc4c2=O)Oc2ccccc2-3)CC(C)(C)N1` [compound 1615], for which the IC50 is > 15 µM.

Staying with this experiment, now noted: read-out: Stop Data c-Myc μM; concentration at which 50% of the DNA was arrested (arrested:full-length 1:1).
With `CN(C)CCCCNC(=O)c1cn2c3c(c(NCCCN4CCOCC4)c(F)cc3c1=O)Oc1c-2ccc2ccccc12` [compound 129], the IC50 was 1.75 µM.

Regarding `NC1CCN(c2c(F)cc3c(=O)c(C(=O)NCc4nc5ccccc5[nH]4)cn4c3c2Oc2cc3ccccc3cc2-4)C1` (stereo not shown) [compound 196], the IC50 came to 1.75 µM.

`CN(C)CCCCNC(=O)c1cn2c3c(c(N4CCC(N)C4)c(F)c(N)c3c1=O)Oc1cc3ccccc3cc1-2` (stereo not shown) [compound 237]: the IC50 turned out to be 1.75 µM.

Turning to `CN1CCCN(c2c(F)cc3c(=O)c(C(=O)N4CCOCC4)cn4c3c2Oc2cc3ccccc3cc2-4)CC1` [compound 41], the IC50 stood at 2.5 µM.

In the case of `CN1CCCC1CCNC(=O)c1cn2c3c(c(NCCCCO)c(F)cc3c1=O)Oc1cc3ccccc3cc1-2` (stereo not shown) [compound 284], the IC50 came to 1.75 µM.

With `CN1CCN(CCCNc2c(F)cc3c(=O)c(C(=O)NCCCN4CCOCC4)cn4c3c2Oc2cc3c(cc2-4)oc2ccccc23)CC1` [compound 149], the IC50 came to 1.75 µM.

For `CN(C)CCCCNc1c(F)cc2c(=O)c(C(=O)N3CC[C@H](NC(=O)OC(C)(C)C)C3)cn3c4cc5c(cc4oc1c23)c(=O)c1ccccc15` [compound 207], the IC50 was 1.75 µM.

As for `CC(C)(C)OC(=O)N[C@@H]1CCN(c2c(F)cc3c(=O)c(C(=O)NCCN4CCOCC4)cn4c3c2Oc2cc3ccccc3cc2-4)C1` [compound 63], the IC50 was 2.5 µM.

With `CN1CCCC1CCNc1c(F)cc2c(=O)c(C(N)=O)cn3c2c1Oc1cc2ccccc2cc1-3` (stereo not shown) [compound 298], the IC50 amounted to 1.75 µM.

Consider `O=C(NCCCN1CCOCC1)c1cn2c3c(c(NCCN4CCCC4)ccc3c1=O)Oc1cc3ccccc3cc1-2` [compound 267], for which the IC50 came to 1.75 µM.

Turning to `NC1CCN(c2c(F)cc3c(=O)c(C(=O)NN4CCCCC4)cn4c3c2Oc2cc3ccccc3cc2-4)C1` (stereo not shown) [compound 244], the IC50 turned out to be 1.75 µM.

Turning to `CN(C)CCCCNC(=O)c1cn2c3c(c(NCCN4CCCC4)c(F)cc3c1=O)Oc1c-2ccc2ccccc12` [compound 473], the IC50 is 0.62 µM.

`CN(C)CCCCNc1ccc2c(=O)c(C(=O)NCCN3CCOCC3)cn3c2c1Oc1cc2ccccc2cc1-3` [compound 453]: the IC50 was 0.75 µM.

Consider `CN1CCN(c2c(F)cc3c(=O)c(C(=O)N4CCC(N)C4)cn4c5cc6c(=O)c7ccccc7c(=O)c6cc5oc2c34)CC1` (stereo not shown) [compound 97], for which the IC50 amounted to 2.5 µM.

In the case of `CN(C)CCCCNc1c(F)cc2c(=O)c(C(=O)N3CCC(N)C3)cn3c4cc5c(=O)c6ccccc6c(=O)c5cc4oc1c23` (stereo not shown) [compound 96], the IC50 is 2.5 µM.

As for `CN(C)CCCCNC(=O)c1cn2c3cc4c(=O)c5ccccc5c(=O)c4cc3oc3c(NCCC4CCCN4C)c(F)cc(c1=O)c32` (stereo not shown) [compound 347], the IC50 came to 0.9 µM.

In the case of `CN1CCCC1CCNC(=O)c1cn2c3c(c(N4CCC(NC(=O)OC(C)(C)C)C4)ccc3c1=O)Oc1cc3ccccc3cc1-2` (stereo not shown) [compound 451], the IC50 was found to be 0.75 µM.

Take `CN1CCN(CCCNC(=O)c2cn3c4c(c(NCCC5CCCN5C)c(F)cc4c2=O)Oc2c-3ccc3ccccc23)CC1` (stereo not shown) [compound 549]: the IC50 amounted to 0.375 µM.

With `CN1CCN(CCCNC(=O)c2cn3c4c(c(NCCN5CCCC5)c(F)cc4c2=O)Oc2cc4ccccc4cc2-3)CC1` [compound 71], the IC50 came out at 2.5 µM.

For the compound `CN(C)c1ccc(NC(=O)c2cn3c4c(c(NCCC5CCCN5C)c(F)cc4c2=O)Oc2c-3ccc3ccccc23)cc1` (stereo not shown) [compound 136], the IC50 came out at 1.75 µM.

For the compound `NC1CCN(c2c(F)cc3c(=O)c(C(=O)NCC(O)CO)cn4c3c2Oc2cc3ccccc3cc2-4)C1` (stereo not shown) [compound 300], the IC50 was 1.75 µM.

For the compound `CN1CCN(CCCNC(=O)c2cn3c4c(c(N5CCC(N)C5)c(F)c(N)c4c2=O)Oc2cc4ccccc4cc2-3)CC1` (stereo not shown) [compound 240], the IC50 was determined as 1.75 µM.

For the compound `CN(C)CCCCNC(=O)c1cn2c3cc4c(cc3oc3c(NCCN5CCOCC5)c(F)cc(c1=O)c32)c(=O)c1ccccc14` [compound 490], the IC50 came out at 0.5 µM.

With `CN(C)CCCCNc1c(F)cc2c(=O)c(C(=O)NCCCn3ccnc3)cn3c2c1Oc1c-3ccc2ccccc12` [compound 142], the IC50 stood at 1.75 µM.

`O=C(O)c1cn2c3c(c(N4CC5CCCNC5C4)c(F)cc3c1=O)Oc1cc3ccccc3cc1-2` (stereo not shown) [compound 23]: the IC50 is 0.75 µM.

For the compound `CN1CCCC1CCNc1c(F)cc2c(=O)c(C(=O)NCCCN3CCOCC3)cn3c2c1Oc1c-3ccc2ccccc12` (stereo not shown) [compound 476], the IC50 was determined as 0.58 µM.

In the case of `CN1CCN(CCCNc2ccc3c(=O)c(C(=O)NCCC4CCCN4C)cn4c3c2Oc2cc3ccccc3cc2-4)CC1` (stereo not shown) [compound 455], the IC50 is 0.75 µM.

As to `N[C@@H]1CCN(C(=O)c2cn3c4c(c(NCCN5CCOCC5)c(F)cc4c2=O)Oc2c-3ccc3ccccc23)C1` [compound 84], the IC50 was found to be 2.5 µM.

For `CN1CCCC1CCNC(=O)c1cn2c3c(c(NCCN4CCCC4)c(F)cc3c1=O)Oc1c-2ccc2ccccc12` (stereo not shown) [compound 138], the IC50 is 1.75 µM.

In the case of `CN1CCCC1CCNC(=O)c1cn2c3cc4oc5cc([N+](=O)[O-])ccc5[nH]c4cc3oc3c(NCCCN4CCOCC4)c(F)cc(c1=O)c32` (stereo not shown) [compound 408], the IC50 is 0.75 µM.

Regarding `CN1CCCC1CCNC(=O)c1cn2c3c(c(NCCCN4CCOCC4)c(F)cc3c1=O)Oc1cc3ccccc3cc1-2` (stereo not shown) [compound 51], the IC50 was determined as 2.5 µM.

In the case of `Nc1c(F)c(NCCCN2CCOCC2)c2c3c1c(=O)c(C(=O)NCCCN1CCOCC1)cn3-c1cc3ccccc3cc1O2` [compound 218], the IC50 amounted to 1.75 µM.

For `CN1CCCN(C(=O)c2cn3c4c(c(N5CCC(N)C5)c(F)cc4c2=O)Oc2cc4ccccc4cc2-3)CC1` (stereo not shown) [compound 197], the IC50 was 1.75 µM.

As to `CC1CCCC(C)N1CCCNc1c(F)cc2c(=O)c(C(=O)NCCC3CCCN3C)cn3c2c1Oc1cc2ccccc2cc1-3` (stereo not shown) [compound 296], the IC50 is 1.75 µM.

On to `O=C(NCCCN1CCOCC1)c1cn2c3c(c(NCCN4CCCC4)c(F)cc3c1=O)Oc1cc3c(cc1-2)oc1ccccc13` [compound 160], for which the IC50 was 1.75 µM.
